{"source": "ChEMBL document CHEMBL4270539", "about": "“Fibrogenic Disorders in Human Diseases: From Inflammation to Organ Dysfunction” (J Med Chem, 2018)", "key": {"[1]": {"target": "Sphingosine 1-phosphate receptor 2 (Homo sapiens, UniProt O95136)", "sequence (O95136 whole entry)": "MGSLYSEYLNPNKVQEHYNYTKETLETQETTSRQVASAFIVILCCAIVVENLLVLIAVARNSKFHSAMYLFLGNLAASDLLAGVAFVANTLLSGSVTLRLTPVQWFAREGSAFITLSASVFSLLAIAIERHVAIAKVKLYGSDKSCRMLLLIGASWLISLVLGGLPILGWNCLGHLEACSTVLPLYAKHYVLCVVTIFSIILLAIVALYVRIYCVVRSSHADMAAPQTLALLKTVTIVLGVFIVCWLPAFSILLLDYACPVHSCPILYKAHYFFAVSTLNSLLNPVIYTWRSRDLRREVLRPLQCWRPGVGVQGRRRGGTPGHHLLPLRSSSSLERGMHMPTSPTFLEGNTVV", "type": "functional"}, "[2]": {"target": "Sphingosine 1-phosphate receptor 2 (Rattus norvegicus, UniProt P47752)", "sequence (P47752 whole entry)": "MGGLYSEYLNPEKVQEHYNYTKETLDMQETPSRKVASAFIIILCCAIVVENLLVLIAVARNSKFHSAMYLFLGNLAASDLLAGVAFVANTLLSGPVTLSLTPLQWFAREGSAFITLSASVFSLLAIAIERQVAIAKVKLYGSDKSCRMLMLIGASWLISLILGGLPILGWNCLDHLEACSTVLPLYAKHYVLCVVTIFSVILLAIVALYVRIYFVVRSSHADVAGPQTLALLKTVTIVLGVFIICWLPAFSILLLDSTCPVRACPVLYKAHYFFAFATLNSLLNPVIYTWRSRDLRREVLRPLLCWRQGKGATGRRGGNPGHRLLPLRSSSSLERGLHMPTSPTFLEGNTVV", "type": "functional"}, "CREB-binding protein": {"target": "CREB-binding protein (Homo sapiens, UniProt Q92793)", "sequence (Q92793 whole entry)": "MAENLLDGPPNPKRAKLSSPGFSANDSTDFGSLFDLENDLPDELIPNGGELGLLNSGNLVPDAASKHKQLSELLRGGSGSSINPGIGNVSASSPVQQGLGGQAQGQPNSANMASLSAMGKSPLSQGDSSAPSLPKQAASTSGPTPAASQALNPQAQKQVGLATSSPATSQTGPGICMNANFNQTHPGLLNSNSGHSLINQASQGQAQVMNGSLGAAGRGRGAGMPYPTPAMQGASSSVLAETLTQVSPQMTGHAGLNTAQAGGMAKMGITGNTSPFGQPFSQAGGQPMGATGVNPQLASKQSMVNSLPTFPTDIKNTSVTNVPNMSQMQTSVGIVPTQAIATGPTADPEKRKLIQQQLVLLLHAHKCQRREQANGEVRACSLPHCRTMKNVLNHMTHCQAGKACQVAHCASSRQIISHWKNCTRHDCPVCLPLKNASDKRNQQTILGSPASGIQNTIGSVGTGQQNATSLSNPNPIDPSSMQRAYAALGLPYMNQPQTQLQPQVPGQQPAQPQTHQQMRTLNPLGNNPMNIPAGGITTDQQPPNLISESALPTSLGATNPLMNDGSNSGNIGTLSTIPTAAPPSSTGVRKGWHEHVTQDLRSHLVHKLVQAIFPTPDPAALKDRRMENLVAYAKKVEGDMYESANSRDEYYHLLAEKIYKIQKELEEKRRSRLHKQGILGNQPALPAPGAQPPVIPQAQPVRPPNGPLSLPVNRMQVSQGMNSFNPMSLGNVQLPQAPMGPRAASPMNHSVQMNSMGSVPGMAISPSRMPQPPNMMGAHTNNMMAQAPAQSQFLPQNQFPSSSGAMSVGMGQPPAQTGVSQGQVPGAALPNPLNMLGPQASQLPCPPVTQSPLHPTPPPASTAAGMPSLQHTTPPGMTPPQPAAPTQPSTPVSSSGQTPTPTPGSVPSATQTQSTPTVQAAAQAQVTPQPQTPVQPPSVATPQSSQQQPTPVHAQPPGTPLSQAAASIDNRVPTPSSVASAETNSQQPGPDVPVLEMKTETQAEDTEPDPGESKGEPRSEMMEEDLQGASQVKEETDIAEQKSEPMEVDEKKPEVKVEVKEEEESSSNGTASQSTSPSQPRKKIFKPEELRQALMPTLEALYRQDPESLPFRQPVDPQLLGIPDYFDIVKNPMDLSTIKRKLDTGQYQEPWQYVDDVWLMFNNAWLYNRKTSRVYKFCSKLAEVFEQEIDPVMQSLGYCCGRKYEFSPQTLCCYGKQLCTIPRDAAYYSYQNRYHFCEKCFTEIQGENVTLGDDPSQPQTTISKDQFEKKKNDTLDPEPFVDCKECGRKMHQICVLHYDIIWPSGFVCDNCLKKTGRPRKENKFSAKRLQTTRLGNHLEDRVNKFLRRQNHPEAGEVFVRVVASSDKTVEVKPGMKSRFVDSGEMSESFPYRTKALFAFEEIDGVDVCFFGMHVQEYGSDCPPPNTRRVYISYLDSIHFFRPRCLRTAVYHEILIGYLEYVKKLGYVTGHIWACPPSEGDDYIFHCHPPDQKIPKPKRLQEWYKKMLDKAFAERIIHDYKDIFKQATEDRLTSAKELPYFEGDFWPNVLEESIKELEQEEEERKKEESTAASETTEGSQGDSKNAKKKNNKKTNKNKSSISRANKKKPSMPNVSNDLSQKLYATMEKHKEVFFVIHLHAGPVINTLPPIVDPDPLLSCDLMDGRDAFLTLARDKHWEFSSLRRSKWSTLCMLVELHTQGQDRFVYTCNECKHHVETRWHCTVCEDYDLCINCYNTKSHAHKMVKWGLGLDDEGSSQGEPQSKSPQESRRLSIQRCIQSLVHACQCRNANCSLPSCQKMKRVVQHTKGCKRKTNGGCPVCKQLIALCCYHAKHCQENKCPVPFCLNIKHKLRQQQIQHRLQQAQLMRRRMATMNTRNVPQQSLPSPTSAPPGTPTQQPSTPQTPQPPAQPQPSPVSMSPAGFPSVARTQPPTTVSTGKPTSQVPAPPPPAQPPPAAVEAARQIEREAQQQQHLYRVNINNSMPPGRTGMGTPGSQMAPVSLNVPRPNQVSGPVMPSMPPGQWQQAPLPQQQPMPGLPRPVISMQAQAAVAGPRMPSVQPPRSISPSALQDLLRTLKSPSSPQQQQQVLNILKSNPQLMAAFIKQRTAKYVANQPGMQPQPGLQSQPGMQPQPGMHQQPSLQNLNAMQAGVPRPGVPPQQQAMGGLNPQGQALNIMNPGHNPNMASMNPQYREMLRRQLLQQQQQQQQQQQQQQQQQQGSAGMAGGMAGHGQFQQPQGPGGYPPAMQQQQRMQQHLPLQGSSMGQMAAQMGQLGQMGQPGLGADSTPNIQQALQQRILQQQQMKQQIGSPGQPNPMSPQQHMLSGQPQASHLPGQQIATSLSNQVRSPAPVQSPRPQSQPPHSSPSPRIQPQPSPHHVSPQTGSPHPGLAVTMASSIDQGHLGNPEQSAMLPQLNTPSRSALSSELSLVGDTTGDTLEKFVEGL"}}, "data": [{"smiles": "Cc1nn(C)c2nc(NNC(=O)Nc3cc(Cl)nc(Cl)c3)cc(C(C)C)c12", "values": [{"measurement": "IC50", "setting": "[1]", "value": 20, "unit": "nM"}, {"measurement": "IC50", "setting": "[2]", "value": 20, "unit": "nM"}]}, {"smiles": "O=C1[C@H](Cc2ccc(O)cc2)N2C(=O)CCN(C(=O)NCc3ccccc3)[C@H]2CN1Cc1cccc2ccccc12", "values": [{"measurement": "IC50", "setting": "CREB-binding protein", "value": 3000, "unit": "nM"}]}]}
